Key:
[1] = tested on: patients with multisystemic atrophy cerebellar type (MSA-C); experiment: Case studies, multisystemic atrophy cerebellar type; type: in vivo, human
[2] = tested on: person with progressive postural imbalance; experiment: Case study Example 22, get up and go test and cognition; type: in vivo, human
Protocol: Treatment with acetyl-DL-leucine (Tanganil®) was started because the patient was suffering from imbalance and gait disorder. They initiated a one-month course comprising nine 500 mg tablets taken three times a day (TID) with meals, i.e., a total daily dosage of 4.5 g.
The ability of the subject to move was measured in a home setting “get up and go test”. This test involved the subject rising unaided from their chair and walking the length of their living area to their kitchen. This was timed over seven consecutive days prior to treatment, and over the next seven consecutive days once treatment with Tanganil® had started.
The same subject then initiated another month of treatment, i.e. a further one-month course comprising nine 500 mg capsules taken TID with meals (total daily dosage of 4.5 g).

wild-type (Npc1+/+) mice = experiment: Motor function analysis (Open Field Activity Monitor); type: in vivo, mouse; conditions: nine weeks of age
Protocol: (§1) Separate groups of Npc1^−/− and Npc1^+/+ mice were left untreated, as controls. Motor function analysis was performed on mice at eight and nine weeks of age using an Open Field Activity Monitor according to manufacturer's instructions (Linton Instruments, Amlogger Software). Each mouse was placed in a plastic cage with bedding and analysed for five minutes. Rears were counted manually. Motor function parameters measured were: • 1. Centre Rearing: mice rearing on hind legs unsupported; • 2. Rearing: mice rearing on hind legs with and without the support of cage walls; • 3. Activity: regular movement of the animal including walks; • 4. Front to Back (FR) count: movement of the animal from front to back of the cage; • 5. Active Time: duration (s/min) of activeness regardless of movement; • 6. Mobile Time: duration (s/min) of mobility; • 7. Rearing Time: duration of any rearing. Results Coat Condition

Npc1−/− mice = experiment: as above; type: in vivo, mouse; conditions: nine weeks of age
Protocol: as §1

[3] = tested on: patients with cerebellar ataxia; conditions: cited from earlier work
Npc1−/− mouse = experiment: Lifespan; type: in vivo; conditions: 0.1 g/kg from 3 weeks of age
Text: Separate groups of Npc1^−/− and Npc1^+/+ mice were left untreated, as controls.

[4] = tested on: patients with Niemann-Pick Type C (NPC); conditions: one-month study, 12 NPC patients (Bremova 2015); cited from earlier work
[5] = tested on: Niemann-Pick A (NPA) patient fibroblasts; experiment: Lysosomal volume via LysoTracker; type: cell-based, human; conditions: 1 mM, 6 days
NPC patients = experiment: Clinical severity score (CSS) and annual severity increment score (ASIS) in ten NPC patients; type: in vivo, human; conditions: 4.5 g/day
Text: An NPC patient's severity may be quantified by assigning a clinical severity score (CSS), which assesses various parameters of the disease and gives each parameter a score out of 5 (higher score=greater severity). See Yanjanin et al., “Linear Clinical Progression, Independent of Age of Onset, in Niemann-Pick Disease, Type C,” Am J Med Genet Part B 153B:132-140. In an untreated patient, one can typically predict how the CSS will change over time in an individual, as disease progression appears to be linear. For example, if Patient A moves from a CSS of 8 to a CSS of 12 between month 0 and month 12, it can be predicted that by month 36, the patient will have a CSS of 20. The annual severity increment score (ASIS) quantities the annual rate of change in the CSS, calculated by dividing the CSS of a patient by the patient's age. […]
Ten NPC patients were administered acetyl-leucine at 4.5 g/day over long durations. A CSS was determined at baseline, and at various time points, for eye movement, ambulation, speech, swallow, fine motor skills, cognition, memory, and seizures. An overall CSS was calculated at baseline and at each such time point by adding the individual CSS values for each parameter (eye movement, ambulation, etc.).
The ASIS at baseline and each time point was calculated using each patient's CSS and age at the time of assessment. […]

## CC(=O)NC(CC(C)C)C(=O)O (racemic) [acetyl-DL-leucine]
[1]; MSA-C Patient 1, after one week, 5 g per day
  Speech: significant improvement in speech
[1]; MSA-C Patient 2, after 3 weeks
  Dizziness: substantially improved
  Falls: falls completely stopped
  Gait: significant improvement of gait
[1]; MSA-C Patient 2, one week after first stop
  Symptoms after stopping medication: deterioration of gait and dizziness
[1]; MSA-C Patient 2, two days after second stop
  Symptoms after stopping medication: progressive deterioration of gait and dizziness
[1]; MSA-C Patient 3
  Symptomatology after return to treatment: symptomatology re-improved
[1]; MSA-C Patient 3, after one month
  Gait analysis (summary): improvement of gait speed, and reductions of track width and gait fluctuations
[1]; MSA-C Patient 3, three weeks after treatment was again suspended
  Symptoms after re-suspension: deterioration of symptoms, especially dizziness
[1]; MSA-C Patient 3, two to three weeks after stopping
  Symptoms after stopping medication: progressive deterioration of gait and dizziness
[2]; after 2-3 weeks of treatment
  Cognitive function (noticed by family): significant improvement in their cognitive function, spatial awareness and general demeanor
[2]; on treatment, 4.5 g daily
  Faster than pre-treatment, get up and go test: 25%
[2]; once treatment had started, 4.5 g daily, 40±3 prior to treatment
  Average time, get up and go test: 30 ± 2 s
[2]; over eighteen months, 4.5 g per day
  Side effects: no side effects
[2]; second one-month course, 4.5 g daily
  Improvements on second treatment: rapidly returned
wild-type (Npc1+/+) mice
  Motor function properties vs untreated littermates: no significant difference in motor function properties
Npc1−/− mice
  Motor function properties vs untreated littermates: significantly improved motor function
[3]; case series (Pelz 2015)
  benefit in degenerative cerebellar ataxia: did not find benefit
[3]; case series (Strupp 2013)
  symptoms of cerebellar ataxia: symptomatic improvement of cerebellar ataxia
[3]; quantitative gait analysis (Schniepp 2015)
  temporal gait variability: improved temporal gait variability
Npc1−/− mouse
  Lifespan: small but statistically significant increase in lifespan
[4]
  ataxia symptoms: symptomatic improvement of ataxia
[5]
  LysoTracker fluorescence vs untreated disease fibroblasts: statistically significant reduction in LysoTracker fluorescence toward control level
NPC patients
  Change in ASIS during treatment relative to baseline: all ten patients showed a reduction in ASIS
  Change in overall CSS over the course of the experiment: none of the ten patients showed an overall increase in CSS

— patent US12458614B2, “Therapeutic agents for improved mobility and cognitive function and for treating neurodegenerative diseases and lysosomal storage disorders” (priority 2017, dated 2025)
